In brackets after ≈: the same amount, converted by molar mass.
Experiments:
[1] = system: MCF-7 cancer cell line; experiment: Cell viability assay; format: cell-based; conditions: Homo sapiens, MCF7, 24 h, read-out: IC50 (cytotoxicity, SRB assay)
[2] = system: MCF-7 colony formation; experiment: Cell proliferation; format: cell-based, human; conditions: MCF-7, treated with IC50, 5 days; negative control 100%
[3] = system: MCF-7 cell migration; experiment: Cell migration; format: cell-based, human; conditions: for migration area at 24 hours: MCF-7, treated with IC50, 24 hours, negative control 44.02%
[4] = system: normal human diploid fibroblasts; conditions: cited from earlier work

With `C[C@H]1c2cccc(O)c2C(=O)C2=C(O)[C@]3(O)C(=O)C(C(N)=O)=C(O)[C@@H](N(C)C)[C@@H]3[C@@H](O)[C@@H]21` [DOX, doxycycline] the IC50 [1] was 343 µg/mL (≈ 773 µM), the “colony formation relative to the negative control” value [2] was 35.56% and the “migration area at 24 hours” value [3] was 6.8%. For the same compound, the “migration area at 48 hours” value ([3]; MCF-7, treated with IC50, 48 hours, negative control 53.99%) was -16.50%.

In the case of `C[C@@H]1O[C@@H](O[C@@H]2[C@@H](O)[C@H](OCCc3ccc(O)c(O)c3)O[C@H](CO)[C@H]2OC(=O)/C=C/c2ccc(O)c(O)c2)[C@H](O)[C@H](O)[C@H]1O` [ACT, Acteoside], the IC50 [1] is listed as 135 µg/mL (≈ 216 µM), the “toxic effects on normal human diploid fibroblasts” value [4] is listed as “no toxic effects” and the “colony formation relative to the negative control” value [2] is listed as 39.7%. The “migration area at 24 hours” value [3] was 14.38%.

— paper PMC12174528 (Asian Pacific Journal of Cancer Prevention : APJCP, 2025)
